The values that follow come from patent publication US20040121969A1, “Antiviral nucleoside derivatives” (Roche Palo Alto LLC, priority 2002, published 2004).

System in the first data set: not given
Assay: not given
To be noted: background statement; cited from earlier work.
`NC(=O)c1ncn([C@H]2O[C@@H](CO)[C@@H](O)[C@H]2O)n1` [levovirin, Levovirin]: the “dose absorbed systemically after oral administration” value is “about 15%”.

For another data set, the system named is human mononuclear cells.
Assay: not given
The note with it: treatment of human mononuclear cells; cited from earlier work.
Take `NC(=O)c1ncn([C@@H]2O[C@H](CO)[C@@H](O)[C@H]2O)n1` [Ib, ribavirin]: the “levels of IL-2, TNFα and IFNΓ” value is listed as “elevated levels”.

In the next data set the test system is Caco-2 cells. The experiment in a line: Caco-2 cell assay permeability. In kind it is in vitro ADME, Human. The note with it: Caco-2. An excerpt:
For general discussions of the Caco Assay see: S. Yee, “In Vitro Permeability Across Caco-2 Cells (Colonic) Can Predict In Vivo (Small Intestinal) Absorption in Man—Fact or Myth” Pharm. Res. 14(6):763-766 (1997) and Yamashita et. al., “Analysis of Drug Permeation Across Caco-2 Monolayer: Implication for Predicting In Vivo Drug Absorption” Pharm. Res. 14(4):486-491(1997). For specific technical aspects see: Grass, G. M. and Sweetana, S. A. “In Vitro Measurement of Gastrointestinal Tissue Permeability Using a New Diffusion Cell” Pharm. Res. 5(6):372-376 (1988); Rubas et. al., “Comparison of the Permeability Characteristics of a Human Colonic Epithelial (Caco-2) Cell Line to Colon of Rabbit, Monkey, and Dog Intestine and Human Drug Absorption” Pharm. Res. 10(1): 113-117 (1993).
High passage (108-120) Caco-2 cells are cultured in Dulbecco's Modified Eagle Media with high Glucose and L-Glutamine (DMEM) (Gibco/Life Technologies, Cat # 11965-084) supplemented with 10% Fetal Bovine Serum, 1× L-Glutamine (Gibco/Life Technologies, Cat # 25030-081) 1× Penicillin-streptomycin (Gibco/Life Technologies, Cat # 15140-122) 1× Non-essential Amino Acids, (Gibco/Life Technologies, Cat # 11140-019). Cells are maintained in T225 cm^2 Cell Culture Flask Tissue Culture Treated (Costar, Cat # 3001) at 37° C. and 5% CO2. For transport experiments, cells are plated at 7.1×10^4 cells/well into 12-well collagen-coated PTFE membrane polystyrene plates with inserts (Costar # 3493, 12 mm diameter, 0.4 um pore size, sterile, tissue culture treated). Cells are fed every 3 days and maintained at 37° C. and 5% CO2 for 21 days to allow complete formation of a polarized monolayer with tight junctions.
Prepare 5 mg/ml stock solution of test compound in DMSO and store at 4° C. Dilute desired amount of 5 mg/ml stock to 10 mL with pH 6.5 Kreb's Henseleit bicarbonate buffer to give a concentration of 100 μM. Then 1 mL of 100 μM solution was further diluted to 5 mL to make the concentration of 20 μM. This 20 μM test solution was used as initial donor dosing solution (D0). Warm drug solution(s) to 37° C. before use.
1. Prewarm buffer, working solutions, and three 12-well plates containing buffer for each plate of 12 inserts. Using a millicell®-ERS equipped with “chopstick” electrodes (Millipore, Bedford, Mass.) check the TEER. This procedure should be done when the cells are at approximately 37° C., since TEER is effected by temperature. Use only those inserts that have TEER above 300 ohms.
2. Decant media and wash each insert once with warm Kreb's-Henseleit bicarbonate buffer.
3. 0.5 mL pH 6.5 Kreb's-Henseleit buffer was added to apical side of the cell monolayers and 1.25 mL pH 7.4 Kreb's-Henseleit buffer to the basolateral chamber. The cells were equilibrated in 37° C. and 5% CO2 incubator for at least 30 minutes.
4. The apical side buffer was removed and replaced with 0.5 mL 20 μM test solutions.
5. The cells were then incubated at 37° C. and 5% CO2.
6. At 30, 60 and 90 minutes time points, the inserts were transferred to new plates which receiver sides contained 1.25 mL warm fresh pH 7.4 Kreb's-Henseleit buffer.
7. The media from all plates were collected as receiver samples.
8. After 60 min transport studies, Lucifer Yellow (0.05 mL×1000 μM) was added to the apical side of the wells. At the end of the transport studies (90 minutes), the fluorescence of the receiver side samples was measured.
Sample solutions from the donor side were collected at the end of the experiments as D90 samples. The dC/dt of test substance was calculated from sampling data at […] (assume 0 ng/mL) and 60 minutes. The apparent permeability coefficient (Papp) was calculated from the following equation, [formula] […]
(In general: Passage across Caco-2 layers is used to estimate intestinal permeability.)
In the case of `CC(C)[C@H](N)C(=O)N1CCC[C@H]1C(=O)OC[C@@H]1O[C@H](n2cnc(C(N)=O)n2)[C@@H](O)[C@H]1O.Cl` [Compound 18, 1-(2S-amino-3-methyl-butyryl)-pyrrolidine-2S-carboxylic acid 5S-(3-carbamoyl-[1,2,4]triazol-1-yl)-3R,4S-dihydroxy-tetrahydro-furan-2S-ylmethyl ester, hydrochloride], the Caco-2 permeability worked out at 3.4 ×10⁻⁶ cm/s.

The same data set, now with this note: apparent permeability coefficient (Papp); apical pH 6.5 to basolateral pH 7.4; 20 μM test solution; 37° C.
Consider `CCC(=O)OC[C@@H]1O[C@H](n2cnc(C(N)=O)n2)[C@@H](OC(=O)CC)[C@H]1OC(=O)CC` [Compound 2, propionic acid 3S,4S-bis-propionyloxy-5S-(3-carbamoyl-[1,2,4]triazol-1-yl)-tetrahydro-furan-2S-ylmethyl ester], for which the Caco-2 permeability came out at 7.8 ×10⁻⁶ cm/s. For the compound `CCCCCCCC(=O)OC[C@@H]1O[C@H](n2cnc(C(N)=O)n2)[C@@H](O)[C@H]1O` [Compound 34, octanoic acid 5S-(3-carbamoyl-[1,2,4]triazol-1-yl)-3R,4S-dihydroxy-tetrahydrofuran-2S-ylmethyl ester], the Caco-2 permeability was determined as 6.5 ×10⁻⁶ cm/s. On to `C[C@H](N)C(=O)OC[C@@H]1O[C@H](n2cnc(C(N)=O)n2)[C@@H](O)[C@H]1O.Cc1ccc(S(=O)(=O)O)cc1` [Compound 7, 2S-amino-propionic acid 5S-(3-carbamoyl-[1,2,4]triazol-1-yl)-3R,4S-dihydroxy-tetrahydro-furan-2S-ylmethyl ester; compound with toluene-4-sulfonic acid], for which the Caco-2 permeability came out at 1.2 ×10⁻⁶ cm/s.

Take `CC(C)C[C@H](N)C(=O)OC[C@@H]1O[C@H](n2cnc(C(N)=O)n2)[C@@H](O)[C@H]1O.Cc1ccc(S(=O)(=O)O)cc1` [Compound 9, 2S-amino-4-methyl-pentanoic acid 5S-(3-carbamoyl-[1,2,4]triazol-1-yl)-3R,4S-dihydroxy-tetrahydro-furan-2S-ylmethyl ester; compound with toluene-4-sulfonic acid]: the Caco-2 permeability stood at 0.9 ×10⁻⁶ cm/s. On to `CC[C@H](C)[C@H](N)C(=O)OC[C@@H]1O[C@H](n2cnc(C(N)=O)n2)[C@@H](O)[C@H]1O.Cc1ccc(S(=O)(=O)O)cc1` [Compound 10, 2S-amino-3S-methyl-pentanoic acid 5S-(3-carbamoyl-[1,2,4]triazol-1-yl)-3R,4S-dihydroxy-tetrahydro-furan-2S-ylmethyl ester; compound with toluene-4-sulfonic acid], for which the Caco-2 permeability is 1.5 ×10⁻⁶ cm/s.

Consider `CC(C)C(=O)O[C@@H]1[C@H](OC(=O)C(C)C)[C@@H](n2cnc(C(N)=O)n2)O[C@H]1CO` [Compound 17, isobutyric acid 2S-(3-carbamoyl-[1,2,4]triazol-1-yl)-5S-hydroxymethyl-4S-isobutyryloxy-tetrahydro-furan-3S-yl ester], for which the Caco-2 permeability is 4.8 ×10⁻⁶ cm/s. Same read-out and setting: the value for `NC(=O)c1ncn([C@H]2O[C@@H](CO)[C@H](OC(=O)c3ccccc3)[C@@H]2OC(=O)c2ccccc2)n1` [Compound 28, benzoic acid 4S-benzoyloxy-5S-(3-carbamoyl-[1,2,4]triazol-1-yl)-2S-hydroxymethyl-tetrahydro-furan-3S-yl ester] was 26.6 ×10⁻⁶ cm/s; that for “2S-amino-3-methyl-butyric acid 4S-(2S-amino-3-methyl-butyryloxy)-5S-(3-carbamoyl-[1,2,4]triazol-1-yl)-2S-hydroxymethyl-tetrahydrofuran-3S-yl ester dihydrochloride [Compound 3]” was 8.6 ×10⁻⁶ cm/s; that for `CC(C)[C@H](N)C(=O)OC[C@@H]1O[C@H](n2cnc(C(N)=O)n2)[C@@H](O)[C@H]1O.Cl` [Compound 5, 2S-amino-3-methyl-butyric acid 5S-(3-carbamoyl-[1,2,4]triazol-1-yl)-3R,4S-dihydroxy-tetrahydro-furan-2S-ylmethyl ester, hydrochloride] was 5.6 ×10⁻⁶ cm/s.
